Experimental findings from patent US10683352B1, “Methods for treating cancer using GRM8 inhibitors” (Flagship Pioneering Innovations V, Inc., priority 2018, dated 2020) are described below.

In the test the test system is M2-like macrophages. In words: IL-8 secretion by monocyte-derived macrophages treated with mGluR8 agonist (LEGENDplex bead-based immunoassay). The settings on record: supernatant; for Fold change of IL-8 (Normalized to M2-like Macs + LPS with no compound treatment): human monocyte-derived macrophages, LEGENDplex. The class given is cell-based, human. As to the method:
CD14+ monocytes were isolated from human PBMCs using negative magnetic bead selection (Stemcell Technologies) on day 0. Cells were cultured with M-CSF to differentiate monocytes to macrophages. On day 6, cells were treated with L-AP4 (selective group III metabotropic glutamate receptor agonist) (Sigma-Aldrich), at concentrations 1 μM and 10 μM overnight. Supernatant was collected and LEGENDplex™ bead-based immunoassays (Biolegend) were performed to detect for changes in cytokines secreted.
Secretion of the inflammatory cytokine, IL-8, was decreased with the addition of the mGluR8 agonist in M2-like macrophages, consistent across multiple donors, as shown in Table 17 below.

For the compound `NC(CCP(=O)(O)O)C(=O)O` [L-AP4], the “Fold change of IL-8 (Normalized to M2-like Macs + LPS with no compound treatment)” value reads like this: (M2-like Macs + L-AP4 1 μM overnight) 0.646; (M2-like Macs + L-AP4 10 μM overnight) 0.866. The “Secretion of the inflammatory cytokine IL-8” value (macrophages differentiated with M-CSF from CD14+ monocytes of human PBMCs, L-AP4 at 1 μM and 10 μM overnight, multiple donors) is “decreased”.
